Consider six compounds from patent US10905148B2, “Systems and methods for monitoring of blood lactate and targeting of blood lactate via nutritional support” (Run Them Sweet LLC, priority 2012, dated 2021).

Series [1] concerns lipases and esterases in human plasma. Conditions: cited from earlier work.
Series [2] in a line: Osmolality of infusion solutions. It is filed as physicochemical. How it is done:
In its simplest form, the MCC cocktail would be sodium-L-(+)-Lactate prepared by titrating L-(+)-Lactic acid with NaOH. The following describe such procedures: (24, 52, 55-57). Briefly, the MCC infusion cocktail is prepared by mixing concentrated (30-88%) L-(+)-lactic acid solution (e.g., Sigma-Aldrich or PCCA) in 2 N NaOH to pH 4.8. In the example provided, the starting point is a 30% stock lactic acid solution: 300 g 30% lactic acid stock solution is titrated with 133.3 g 2N NaOH and diluted to 1,000 ml with water. This will produce a 11.2% weight-by-volume (“w/v”) MCC cocktail (sodium-L-(+)-Lactate) with an osmolality approximating 2,000 mOsm/l. Depending on the stock lactic acid solution used, a NaOH titrating solution>2 N may be necessary to neutralize stock lactic acid without exceeding the intended volume. Regardless of the specifics of acid titration, a 1.72% Na^+-lactate aqueous solution is isosmotic (308 mOsm/l); consequently, as initially mixed the above described MCC is far too concentrated to be given in a peripheral vein and will need to be diluted to less than 1,000 mOsm/l (a 5.6% Na^+-lactate solution). In a peripheral arm vein and a 5.0-5.6% Na^+-lactate MCC should be given with normal (0.9%, 308 mOsm/l) saline or another isosmotic solution such as […] (dextrose) in water, commonly called D5W (see more below).
In another version of the simplest form, the MCC cocktail would be sodium-L-(+)-Lactate prepared from the dry, powdered salt in deionized water to the concentration intended [e.g., for an isosmotic solution: 154 mM lactate (plus 154 mM Na^+) total osmolarity 308 mOsm/l], and infused in the above-stated amounts to raise arterial [lactate] to the intended levels.
State of the art is to provide parenteral nutritive support to patients using 5% dextrose (D5W, glucose in water, vide supra). Because glucose (dextrose) has a molecular weight of 180, osmolality of D5W is 278 mM, which in the low range of normal plasma osmolality ([…]). Even though the glucose concentration in D5W is 50 times greater than homeostatic in plasma, in terms of its isosmotic effect with glucose alone being the only solute, D5W is isosmotic. Mixing equal isosmotic solutions such as equal volumes of 154 mM Sanguisal-L and D5W glucose will produce an osmolality in the high end of the normal range. As noted earlier, this slightly elevated osmolality because of sodium content will draw fluid from tissues into the vascular compartment, thus mitigating swelling due to injury (15).

For series [3] the following is noted: cited from earlier work.
Series [4] concerns lactate dehydrogenase in red blood cells and the lung parenchyma. Conditions: due to lactate dehydrogenase in red blood cells and lung parenchyma; cited from earlier work.
For series [5] the following is noted: aqueous conditions; cited from earlier work.
For series [6] the following is noted: infusions of 2N Na+-Pyruvate into swine; cited from earlier work.
The mark [7] stands for this setting: lactate clamp procedure, exogenous lactate.

As to Arginyl lactate, in series [1] (neutral pH as exists in human plasma), the “dissociation of individual units at neutral pH” value was “dissociate spontaneously”.
Regarding `C[C@H](O)C(=O)[O-].[Na+]` [sodium-L-(+)-Lactate], the total osmolarity in series [2] (154 mM lactate plus 154 mM Na+, isosmotic solution) came to 308 mOsm/l. Moreover, the osmolality is 308 mOsm/l in series [2] (1.72% aqueous solution, isosmotic); 1,000 mOsm/l in series [2] (5.6% solution); ~2,000 mOsm/l in series [2] (11.2% w/v MCC cocktail). Further, the “higher blood lactate levels seen/used without ill effects” value in series [3] (sodium lactate MCC infusion) is given as 6 mM.
Consider `CC(O)C(=O)OCC(COC(=O)C(C)O)OC(=O)C(C)O` (stereo not drawn) [Glycerol tri-lactate, glycerol tri-lactate], for which the “dissociation of individual units in human plasma” value in series [1] (lipases and esterases in human plasma) was “rapidly dissociate”.
`CC(=O)C(=O)O` [pyruvate]: the conversion in circulation/blood result in series [4] was “rapidly converted to lactate”. Moreover, in series [5], the “stability in aqueous solutions” value is on record as “spontaneous degradation”.
For the compound `CC(=O)C(=O)[O-].[Na+]` [Na^+-Pyruvate, sodium-L-(+)-Pyruvate], in series [6], the “arterial [lactate]” value was 8 mM and the “arterial [pyruvate]” value was 3.5 mM.
Turning to `CC(O)C(=O)O` (stereo not drawn) [lactate, 2-hydroxy-propionate], in series [3] (approximately 3 mg/kg/min, vascular), the “safety of route and amount of vascular lactate administration” value was “safe”. Also, in series [3] (setting [7]), the “blood pH” value is listed as “raises pH” and the “effects on plasma electrolytes” value is recorded as “without major effects”. Further, the side effects entry in series [3] (oral or intravenous administration) is “no apparent side effects except mild alkalosis”.
